Assay results reported in article PMC11846858, “Macrocarpal I induces immunogenic cell death and synergizes with immune checkpoint inhibition by targeting tubulin and PARP1 in colorectal cancer” (Cell Death Discovery, 2025).

Biological target: T1, Tubulin Beta 2B Class IIb (TUBB2B) (Homo sapiens, UniProt Q9BVA1)
T1 construct: human TUBB2B in pET28a, N-terminal His-tag, expressed in E. coli BL21 (DE3) RIL
Assay: ITC with purified His-tagged TUBB2B; supported by DARTS in SW620 and DLD1 lysates
Type: binding

T1 sequence (Q9BVA1 whole entry): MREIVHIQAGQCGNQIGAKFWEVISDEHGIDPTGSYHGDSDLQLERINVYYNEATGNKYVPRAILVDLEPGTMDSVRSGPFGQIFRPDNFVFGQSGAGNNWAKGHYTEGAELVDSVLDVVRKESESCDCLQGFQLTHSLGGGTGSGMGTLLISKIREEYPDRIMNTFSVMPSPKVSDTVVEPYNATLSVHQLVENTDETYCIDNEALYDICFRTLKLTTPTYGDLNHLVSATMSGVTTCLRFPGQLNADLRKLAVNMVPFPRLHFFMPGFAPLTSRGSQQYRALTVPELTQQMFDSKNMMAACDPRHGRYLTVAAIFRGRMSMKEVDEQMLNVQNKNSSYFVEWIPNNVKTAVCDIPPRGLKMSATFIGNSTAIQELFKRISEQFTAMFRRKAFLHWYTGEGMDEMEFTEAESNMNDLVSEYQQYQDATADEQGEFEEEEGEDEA

CC(C)C[C@H](c1c(O)c(C=O)c(O)c(C=O)c1O)[C@@H]1CC[C@@](C)(O)[C@@H]2C[C@H](C(C)(C)O)CC[C@]21C [Macrocarpal I]
Kd: 1540 nM
